Measurements as given in patent US20250241905A1, “3-BETA-HSD1 INHIBITORS AND COMPOSITIONS AND USES THEREOF” (The Cleveland Clinic Foundation, priority 2022, published 2025).
Read-outs that look alike come from different tables or passages of the source.

Key:
human 3β-HSD1 = assay: 3β-HSD1 inhibition, colorimetric NADH detection assay; format: biochemical; conditions: purified recombinant human 3β-HSD1, 50 μM DHEA, 2 mM NAD+, 1 hour, room temperature, duplicate 10-point CRC; read-out: IC50 (nM), in vitro NADH inhibition
Sequence of human 3β-HSD1 (P14060 2-373 limits assumed): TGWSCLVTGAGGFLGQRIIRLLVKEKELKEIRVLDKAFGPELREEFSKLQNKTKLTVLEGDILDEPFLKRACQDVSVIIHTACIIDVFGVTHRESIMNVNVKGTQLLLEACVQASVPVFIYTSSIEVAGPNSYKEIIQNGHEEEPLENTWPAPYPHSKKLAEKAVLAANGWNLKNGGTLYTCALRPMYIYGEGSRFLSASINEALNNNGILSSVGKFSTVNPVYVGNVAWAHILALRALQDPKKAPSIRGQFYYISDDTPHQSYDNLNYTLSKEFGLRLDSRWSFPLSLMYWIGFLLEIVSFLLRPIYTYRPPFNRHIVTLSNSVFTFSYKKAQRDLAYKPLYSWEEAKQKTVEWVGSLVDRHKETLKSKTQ
From the text: Enzymatic turnover was quantified through NADH generation by purified, recombinant human 3β-HSD1 (expressed in Sf9 insect cells) in the presence of steroidal substrate trans-Dehydroandrosterone (DHEA) that was placed slightly above the experimentally determined Km and saturating amounts of co-factor Nicotinamide adenine dinucleotide (NAD^+). The sequence of recombinant human 3β-HSD1 used is […] […] […] […] […] […] […] (SEQ ID NO: 3). DHEA and NAD+ were enzymatically converted to androstenedione and NADH, respectively. Final NADH concentrations were spectroscopically quantified using a commercially available Amplite™ Colorimetric NADH Assay Kit which utilizes an NADH probe with an absorbance wavelength of 460 nm. Enzymatic assays with a final volume of 25 μL were ran in a 384-well, Greiner Bio-One UV-STAR® assay plate in 50 mM TRIS pH 8.0 assay buffer. […] Compound stocks at 10 mM in DMSO were serial diluted 5-fold in DMSO to generate an ECHO® compatible source plate. 125 nL of DMSO, Trilostane, or serial diluted compounds were then acoustically transferred into an empty UV-STAR® assay plate to give a final assay concentration of 0.5% v/v DMSO. The stamp volume and dilution scheme can be adjusted to accommodate compound potency. The assay can tolerate up to a 5% v/v DMSO final assay concentration. 15 μL of 1 μg purified 3β-HSD1 and 50 μM DHEA (final assay volume concentration) was dispensed per well into the stamped plate, centrifuged for 1 minute at 1000 RPM, covered, and allowed to incubate for 15 minutes at room temp. Enzymatic reactions were initiated upon the addition of 10 μL of NAD^+ diluted in assay buffer to give a final assay volume concentration of 2 mM. The assay plate was centrifuged for 1 minute at 1000 RPM, covered, and incubated at room temperature for 1 hour. 25 μL Amplite™ Colorimetric NADH Assay Kit detection solution (prepared as recommended) was added to all reaction wells, the plate centrifuged for 1 minute at 1000 RPM, covered, and incubated for 15 minutes. Final absorbance values (λ=460 nm) are spectroscopically determined on BioTek® Cytation5 or Synergy4 plate readers. […] From the background subtracted values, the non-inhibited enzyme signal (DMSO treated) was averaged from 32 control reactions. The percent inhibition value was calculated by: % inhibition=(1−((background subtracted inhibited reaction)/(background subtracted non-inhibited average)))*100. The resulting percent inhibition was then plotted in duplicate against corresponding concentration values. The resulting CRCs were fit with a four parameter, variable slope log (inhibitor) vs response equation where Y=bottomvalue+ (topvalue−bottomvalue)/(1+10^((log IC50−X)*Hillslope)) to determine the IC50 values for tested compounds.

[1] = tested on: C4-2 prostate cancer cells; assay: Cellular viability of C4-2 cells (CellTiter-Glo); format: cell-based, human; conditions: 6 days, 1% FBS + DHEA, read-out: GI50 (μM), growth inhibition
Description: C4-2 cells were routinely maintained in RPMI+2 mM L-Glutamine+1× Anti-Anti+10% FBS. C4-2 cells were harvested by trypsinization for 90 seconds in 0.25% Trypsin-EDTA, counted with a Vi-Cell Blu cell counter (Beckman Coulter), and diluted into Complete Viability Media (RPMI+2 mM L-Glutamine+1× Anti-Anti+1% FBS+[…]) at a density of 10,000 cells/mL. 12-point, two-fold dilution series of test compounds (starting at 10 mM) were prepared in 100% DMSO, and then 450 nL of the dilution series were stamped in triplicate into 384-well, white, opaque bottom, TC-treated CulturPlate™ (Perkin Elmer 6007680) using acoustic dispensing (Labcyte Echo 550). 50 μL/well of the diluted C4-2 cells (500 cells/well) were added directly to the plates containing dispensed compounds, yielding a final [DMSO] of 0.9% and a final top [compound] of 90 μM. The plates were centrifuged for 1 min at 500×g and then incubated for 6 days at 37° C., 5% CO2. Cell density at the end of the assay was measured using 35 μL/well CellTiter-Glo® (Promega) per the manufacturer's recommendations, and total luminescence was measured on a Cytation 5 plate reader. Raw luminescence values were normalized from 0 (empty Viability Media+0.9% DMSO, no cells) to 100 (Cells+0.9% DMSO, maximum proliferation), triplicate values were averaged, and dose-response curves were fit and G150 values extracted using variable slope nonlinear regression in GraphPad Prism.

[2] = tested on: Androstenedione synthesis in C4-2 prostate cancer cells; assay: Cell line steroid metabolism: androstenedione synthesis inhibition (HPLC, [3H]-labeled androgens); format: cell-based; conditions: Homo sapiens, serum-free RPMI-1640, [3H]-labeled androgens 25 nM
Description: Cells were seeded and incubated in 12-well plates with 0.15 million cells/well in RPMI-1640 medium with 10% FBS for ˜24 h at 37° C. Culture medium was then replaced with serum-free RPMI-1640 and a mixture of radioactive ([3H]-labeled) and non-radioactive androgens (final concentration, 25 nM; ˜600,000 cpm/well; PerkinElmer, Waltham, MA) plus inhibitor compounds at specified concentrations was added. […]
High-performance liquid chromatography (HPLC) analysis was performed on a Waters 1525 HPLC system (Waters Corp., Milford, MA). Dried samples were reconstituted in 50% methanol and injected into the HPLC. Steroids were separated on a Luna 150×4.6 mm, 3.0 μm particle size C18 reverse-phase column (Phenomenex, Torrance, CA) with a methanol/water gradient at 50° C. Column effluent was mixed with Liquiscint scintillation cocktail (National Diagnostics, Atlanta, GA) and analyzed using a β-RAM model 4 in-line radioactivity detector (LabLogic, Brandon, FL).

C4-2 flank tumor = assay: CRPC C4-2 flank tumor model in mice; format: in vivo; conditions: orchiectomized NSG male mice with DHEA pellets, 100 mg/kg in water with 20% Captisol, oral gavage twice daily
Description: The mouse study was performed under a protocol approved by the Institutional Animal Care and Use Committee of the Cleveland Clinic Lerner Research Institute. All NOD scid gamma (NSG) male mice (6 to 8 weeks old) were purchased from the Jackson Laboratory. 10^7 C4-2 cells were injected subcutaneously into mice with matrigel (total injection volume 100 μL). Once tumors reached 100 mm^3 (length×width×height×0.52), mice were surgically orchiectomized and implanted with 5 mg 90-day sustained-release DHEA pellets (Innovative Research of America) to mimic human adrenal DHEA production in patients with CRPC, then the mice were arbitrarily (but not strictly randomized) assigned to vehicle (n=6), Compound 1 (n=6), or Compound 5 (n=6). The mice were given vehicle, Compound 1 (100 mg/kg in water with 20% Captisol), or Compound 5 (100 mg/kg in water with 20% Captisol) by oral gavage twice daily.

SMILES	IC50 (human 3β-HSD1) [nM]	GI50 ([1]; Homo sapiens, 144 h) [µM]	IC50 [2] [nM]	tumor volume compared to vehicle control (C4-2 flank tumor)	GI50 [1] [µM]
O=C1c2ccc(-c3cc(F)c(O)c(F)c3)nc2CCC1c1ccccc1 (centres unmarked) [Compound 10, 2-(3,5-difluoro-4-hydroxyphenyl)-6-phenyl-7,8-dihydroquinolin-5(6H)-one]	79	10	–	–	–
CC1CCc2nc(-c3cc(F)c(O)c(F)c3)ccc2C1=O (centres unmarked) [Compound 7, 2-(3,5-difluoro-4-hydroxyphenyl)-6-methyl-7,8-dihydroquinolin-5(6H)-one]	64	37	7.2	–	–
CC1(C)CCc2nc(-c3cc(F)c(O)c(F)c3)ccc2C1O (centres unmarked) [Compound 12]	2560	61	–	–	–
O=C1c2ccc(-c3cc(F)c(O)c(F)c3)nc2CCC12CC2 [Compound 11]	68	10	4.8	–	–
CC1(C)CCc2nc(-c3cc(F)c(O)cc3F)ccc2C1=O [Compound 25]	84	–	1	–	–
CC1(C)CCc2nc(-c3cc(F)c(O)c(F)c3)ccc2C1(C)O (centres unmarked) [Compound 16]	376	20	–	–	–
CCC1CCc2nc(-c3cc(F)c(O)c(F)c3)ccc2C1=O (centres unmarked) [Compound 8, 2-(3,5-difluoro-4-hydroxyphenyl)-6-ethyl-7,8-dihydroquinolin-5(6H)-one]	105	16	–	–	–
O=C1CCCc2nc(-c3cc(F)c(O)c(F)c3)ccc21 [Compound 1, 2-(3,5-difluoro-4-hydroxyphenyl)-7,8-dihydroquinolin-5(6H)-one]	62	53	83	reduction in tumor volume	–
CC1(C)CCc2nc(-c3cc(F)c(O)c(F)c3)ccc2C1=O [Compound 5, 2-(3,5-difluoro-4-hydroxyphenyl)-6,6-dimethyl-7,8-dihydroquinolin-5(6H)-one]	71	26	1.4	reduction in tumor volume	–
CC1(C)CCc2nc(-c3cc(F)c(O)c(F)c3)ccc2C1(O)C1CC1 (centres unmarked) [Compound 20]	331	30	–	–	–
O=C1c2ccc(-c3cc(F)c(O)c(F)c3)nc2CCC1(F)F [Compound 41]	79	–	68	–	–
C[C@]12CCC(=O)C=C1CC[C@@H]1[C@@H]2CC[C@]2(C)C(c3cccnc3)=CC[C@@H]12 [D4-Abiraterone, reference compound]	–	–	–	–	2.4 ± 0.4
CC[C@@]1(C)CCc2nc(-c3cc(F)c(O)c(F)c3)ccc2C1=O [Compound 55]	89	–	0.7	–	–
CCC1(CC)CCc2nc(-c3cc(F)c(O)c(F)c3)ccc2C1=O [Compound 59]	71	–	3.8	–	–
O=C1CCCc2nc(-c3ccc(O)c(F)c3)ccc21 [Compound 2, 2-(3-fluoro-4-hydroxyphenyl)-7,8-dihydroquinolin-5(6H)-one]	45	59	14	–	–
O=C1c2ccc(-c3cc(F)c(O)c(F)c3)nc2CCC1Cc1ccccc1 (centres unmarked) [Compound 9, 6-benzyl-2-(3,5-difluoro-4-hydroxyphenyl)-7,8-dihydroquinolin-5(6H)-one]	37	6	10	–	–
COCCN1CC(C)(C)C(=O)c2ccc(-c3cc(F)c(O)c(F)c3)nc21 [Compound 83]	556	–	–	–	–
Cc1cc(-c2ccc3c(n2)CCC(C)(C)C3=O)cc(Cl)c1O [Compound 78]	2170	–	–	–	–
O=C1c2ccc(-c3cc(F)c(O)c(F)c3)nc2CCC12CCC2 [Compound 30]	303	–	–	–	–
N#Cc1cc(-c2ccc3c(n2)CCCC3=O)ccc1O [Compound 3, 2-hydroxy-5-(5-oxo-5,6,7,8-tetrahydroquinolin-2-yl)benzonitrile]	651	–	–	–	–
CC1(C)CCc2nc(-c3cc(F)c(O)c(F)c3)ncc2C1=O [Compound 66]	414	–	–	–	–
